Source: the supplement of paper PMC10307832

Tests used:
Assay in all cases: relative viability (nuclei count vs DMSO), 5 days (fraction); higher = more cells survive
[1] = compound: COc1cc2nccc(Oc3ccc(NC(=O)C4(C(=O)Nc5ccc(F)cc5)CC4)cc3)c2cc1OC [Cabozantinib] + Nc1ncn([C@H]2C[C@H](O)[C@@H](CO)O2)c(=O)n1 [Decitabine] (partner 2 µM)
Method in brief: (§1)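 Five library-drug doses in √10 steps were combined with a fixed anchor-drug dose, or a single drug was given alone, by pin tool to lung cancer cell lines in 1536-well plates the day after seeding. Nuclei were stained and counted after 5 days. Relative viability is the nuclei count in treated wells over that in vehicle wells, taken as the median of duplicate plates.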

[2] = compound: COc1cc2nccc(Oc3ccc(NC(=O)C4(C(=O)Nc5ccc(F)cc5)CC4)cc3)c2cc1OC [Cabozantinib] + C[C@@H](Oc1cc(-c2cnn(C3CCNCC3)c2)cnc1N)c1c(Cl)ccc(F)c1Cl [Crizotinib] (partner 1 µM)
Method in brief: as §1

Zosuquidar + Vorinostat = compound: O[C@@H](COc1cccc2ncccc12)CN1CCN([C@@H]2c3ccccc3[C@@H]3[C@H](c4ccccc42)C3(F)F)CC1 [Zosuquidar] + O=C(CCCCCCC(=O)Nc1ccccc1)NO [Vorinostat] (partner 1 µM)
Method in brief: as §1

[3] = compound: COc1cc2nccc(Oc3ccc(NC(=O)C4(C(=O)Nc5ccc(F)cc5)CC4)cc3)c2cc1OC [Cabozantinib] + O=C(CCCCCCC(=O)Nc1ccccc1)NO [Vorinostat] (partner 1 µM)
Method in brief: as §1

Cell Line | relative viability ([1]; first compound 0.02 µM) | relative viability ([1]; first compound 0.06325 µM) | relative viability ([1]; first compound 0.2 µM) | relative viability ([1]; first compound 0.6325 µM) | relative viability ([1]; first compound 2 µM) | relative viability ([2]; first compound 0.02 µM) | relative viability ([2]; first compound 0.06325 µM) | relative viability ([2]; first compound 0.2 µM) | relative viability ([2]; first compound 0.6325 µM) | relative viability ([2]; first compound 2 µM) | relative viability (Zosuquidar + Vorinostat; first compound 0.01 µM) | relative viability (Zosuquidar + Vorinostat; first compound 0.03162 µM) | relative viability (Zosuquidar + Vorinostat; first compound 0.1 µM) | relative viability (Zosuquidar + Vorinostat; first compound 0.3162 µM) | relative viability (Zosuquidar + Vorinostat; first compound 1 µM) | relative viability ([3]; first compound 0.02 µM) | relative viability ([3]; first compound 0.06325 µM) | relative viability ([3]; first compound 0.2 µM) | relative viability ([3]; first compound 0.6325 µM) | relative viability ([3]; first compound 2 µM)
LCLC-103H | 0.716 | 0.791 | 0.722 | 0.721 | 0.748 | 1 | 1.09 | 1.09 | 1.02 | 1.04 | 0.754 | 0.771 | 0.598 | 0.848 | 0.803 | 0.762 | 0.906 | 0.892 | 0.791 | 0.736
NCI-H2405 | 0.725 | 0.788 | 0.77 | 0.752 | 0.764 | 0.933 | 0.862 | 0.872 | 0.873 | 0.895 | 1.07 | 0.963 | 1.01 | 1.05 | 0.31 | 0.846 | 1.25 | 1.01 | 0.986 | 1.07
NCI-H1915 | 0.262 | 0.264 | 0.253 | 0.248 | 0.256 | 0.923 | 0.904 | 0.888 | 0.896 | 0.996 | 0.536 | 0.512 | 0.457 | 0.57 | 0.549 | 0.525 | 0.548 | 0.511 | 0.522 | 0.473
NCI-H661 | 0.6 | 0.608 | 0.563 | 0.632 | 0.69 | – | 0.991 | 1.13 | 0.918 | 1.03 | 0.802 | 0.834 | 0.763 | 0.828 | 0.778 | 0.783 | 0.856 | 0.879 | 0.809 | 0.935
NCI-H1650 | 0.386 | 0.401 | 0.365 | 0.514 | 0.548 | 1.02 | 1.23 | 0.911 | 1.04 | 0.911 | 0.584 | 0.587 | 0.532 | 0.665 | 0.546 | 0.655 | 0.643 | 0.519 | 0.586 | 0.543
NCI-H647 | 0.383 | 0.534 | 0.441 | 0.433 | 0.391 | 1.23 | 1.58 | 1.05 | 1.07 | 0.877 | 0.623 | 0.593 | 0.667 | 0.814 | 0.518 | 0.621 | 0.734 | 0.696 | 0.43 | 0.496
HCC-366 | 0.351 | 0.393 | 0.336 | 0.305 | 0.354 | 0.71 | 0.778 | 0.547 | 0.358 | 0.385 | 0.309 | 0.424 | 0.342 | 0.897 | 0.352 | 0.309 | 0.381 | 0.374 | 0.378 | 0.429
NCI-H2087 | 0.311 | 0.279 | 0.303 | 0.306 | 0.212 | 0.95 | 0.831 | 0.75 | 0.871 | 0.99 | 0.666 | 0.707 | 0.739 | 0.667 | 0.77 | 0.752 | 0.781 | 0.563 | 0.49 | 0.715
SK-LU-1 | 0.583 | 0.698 | 0.668 | 0.631 | 0.627 | – | 0.941 | 0.772 | 0.872 | 0.857 | 0.828 | 0.829 | 0.839 | 0.926 | 0.761 | 0.719 | 1.04 | 0.755 | 0.797 | 0.72
HOP-62 | 0.241 | 0.214 | 0.22 | 0.225 | 0.181 | 0.821 | 1.06 | 1.14 | 0.89 | 0.902 | 0.528 | 0.624 | 0.585 | 0.836 | 0.593 | 0.661 | 0.764 | 0.669 | 0.603 | 0.555
NCI-H2126 | 0.531 | 0.546 | 0.618 | 0.643 | 0.59 | 1.03 | 1.04 | 1.01 | 1.04 | 1.02 | 0.768 | 0.862 | 0.478 | 0.757 | 0.891 | 0.471 | 0.773 | 0.777 | 0.784 | 0.798
NCI-H441 | 0.204 | 0.24 | 0.241 | 0.273 | 0.231 | 0.684 | 0.799 | 0.857 | 0.717 | 0.668 | 0.666 | 0.97 | 0.728 | 0.867 | 0.962 | 0.782 | 0.922 | 0.882 | 0.794 | 0.845
NCI-H2170 | 0.436 | 0.465 | 0.446 | 0.487 | 0.458 | 1.33 | 1.4 | 1.27 | 1.15 | 1.19 | 0.828 | 0.784 | 0.763 | 0.844 | 0.826 | 0.818 | 0.821 | 0.704 | 0.847 | 0.914
SW 1573 | 0.476 | 0.573 | 0.519 | 0.536 | 0.416 | 0.927 | 0.873 | 0.948 | 0.822 | 0.671 | 0.584 | 0.831 | 1.23 | 0.851 | 0.928 | 0.757 | 0.844 | 0.961 | 0.898 | 0.906
H3255 | 0.618 | 0.636 | – | 0.685 | 0.644 | 0.922 | 0.927 | – | 0.974 | 0.931 | 0.787 | 0.837 | 0.613 | 0.824 | 0.756 | 0.887 | 0.791 | – | 0.769 | 0.926
EMC-BAC-2 | 0.998 | 0.963 | 1.04 | 0.994 | 1.13 | 0.841 | 0.779 | 0.781 | 0.817 | 0.827 | 0.457 | 0.438 | 0.489 | 0.528 | 0.258 | 0.279 | 0.678 | 0.608 | 0.456 | 0.422
